Laboratory results: patent US5968949A, “Substituted hydroisoquinoline derivatives and their use as pharmaceuticals” (SmithKline Beecham S.p.A., priority 1995, dated 1999)

System: delta receptor
Experiment: Radioligand binding assay, [3H]-DADLE in mouse brain membranes
Settings: stated in words after the delta affinity range
Description: The activity of the compounds of the present invention as selective delta ligands is determined in radioligand binding assays as described below.
Mouse brain membranes were prepared as described by Kosterlitz (Br. J. Pharmacol., 1981, 73, 939.). The binding of the preferential delta ligand [^3 H]-[D-Ala^2,D-Leu^5 ]-enkephalin (DADLE) was evaluated at its KD concentration (1.3 nM) in presence of 40 nM of the unlabelled mu ligand [D-Ala^2, MePhe^4, Gly-ol5]-enkephalin (DAMGO). The binding of the mu ligand [^3 H]-DAMGO (Eur. J. Pharmacol., 1989, 166, 213) and of the kappa ligand [^3 H]-U69593 (Excerpta Medica, 1990, 211) were carried out at 0.5 nM. The non-specific binding was determined in presence of naloxone (10 μM) for all tritiated ligands. Binding data were expressed as percentage of inhibition and fitted the following equation: f(x)=100.X/(IC50 +X) where X are cold drug concentration values. The IC50 obtained were used to calculate the inhibitory constants (Ki) accordingly to the Cheng and Prusoff relation (Biochem. Pharmacol., 1973, 22, 3099).

CN1CC[C@]2(c3cccc(O)c3)CC(c3ccccc3)=CC[C@H]2C1 (racemic) [Example 3, (±)-trans-4a-(3-Hydroxyphenyl)-2-methyl-6-phenyl-1,2,3,4,4a,5,8,8a-octahydroisoquinoline] was tested, and the “potency rank among the exemplified compounds” value was “most potent of the exemplified compounds”.
